Consider 94 sequences from the OligoGym collection.

Bases are written 5' to 3'; sugars and linkages follow in the same order, as letters with counts (s phosphorothioate, o phosphodiester; PS: all linkages phosphorothioate). The collection does not say whether C is 5-methylated. l = locked nucleic acid (LNA); d = 2'-deoxy (DNA)

In the data set the target is Tau. Put plainly: rat primary cortical neurons, FLIPR, 25 uM ASO.
As for “ACTTTATTTCCAAATTCACTTTTAC (sugars l3 d18 l4, PS)”, the calcium oscillation score was 35.4 % of control.
With “ACTTTATTTCCAAATTCACTTTTAC (sugars l4 d16 l2 d1 l2, PS)”, the calcium oscillation score is 29.5 % of control.
In the case of “ACTTTATTTCCAAATTCACTTTTAC (sugars ldllddddddddddddddddllldl, PS)”, the calcium oscillation score was 76.7 % of control.
Turning to “ACTTTATTTCCAAATTCACTTTTAC (sugars ldllldddddddddddddddllddl, PS)”, the calcium oscillation score was 17.7 % of control.
On to “ACTTTATTTCCAAATTCACTTTTAC (sugars llddldddddddddddddddllddl, PS)”, for which the calcium oscillation score was 17.7 % of control.
Regarding “ACTTTATTTCCAAATTCACTTTTAC (sugars lldldddddddddddddddddlldl, PS)”, the calcium oscillation score is 29.5 % of control.
Next, “ACTTTATTTCCAAATTCACTTTTAC (sugars lldlddddddddddddddddldlll, PS)”: 35.4 % of control.
For the sequence “ACTTTATTTCCAAATTCACTTTTAC (sugars llldddddddddddddddddldldl, PS)”, the calcium oscillation score is 17.7 % of control.
As for “ACTTTCCTAATTCCCAAATT (sugars l3 d15 l2, PS)”, the calcium oscillation score is 63.3 % of control.
Consider “ACTTTTGAACCCATTCC (sugars l2 d12 l3, PS)”, for which the calcium oscillation score was 83.6 % of control.
On to AGAAATAAGTGGTAGT (sugars l2 d11 l3, PS), for which the calcium oscillation score was 102 % of control.
As for AGAAATAAGTGGTAGT (sugars l2 d12 l2, PS), the calcium oscillation score was 86.9 % of control.
As to AGAAATAAGTGGTAGT (sugars l3 d9 l4, PS), the calcium oscillation score is 101 % of control.
Take AGAAATAAGTGGTAGT (sugars l3 d11 l2, PS): the calcium oscillation score is 85.7 % of control.
Next, AGAAATAAGTGGTAGT (sugars l4 d8 l4, PS): 88.1 % of control.
For AGAAATAAGTGGTAGT (sugars l4 d9 l3, PS), the calcium oscillation score was 89.3 % of control.
Next, “AGAACTTCTAGTTATACAGT (sugars l3 d14 l3, PS)”: 35.7 % of control.
For AGAATATTACACCATC (sugars l4 d8 l4, PS), the calcium oscillation score was 102 % of control.
Next, “AGACACCTCGTCAGCTAGCG (sugars l3 d14 l3, PS)”: 9.07 % of control; “AGACCACATTTCCATCC (sugars l2 d13 l2, PS)”: 72 % of control; “AGACCACATTTCCATCCC (sugars l1 d15 l2, PS)”: 71.6 % of control.
Consider “AGACTATTTGCACACTGCCG (sugars l3 d14 l3, PS)”, for which the calcium oscillation score was 40.7 % of control.
On to “AGAGACCACATTATCATCCA (sugars l3 d14 l3, PS)”, for which the calcium oscillation score is 26.2 % of control.
“AGAGAGACCACATTATCATC (sugars l3 d14 l3, PS)”: the calcium oscillation score is 68.5 % of control.
Take AGAGGAACGTGTGGAT (sugars l3 d10 l3, PS): the calcium oscillation score was 25.9 % of control.
As to AGAGGCACAAGTCCT (sugars l3 d9 l3, PS), the calcium oscillation score was 74.3 % of control.
As for AGAGGCACAAGTCCTT (sugars l3 d10 l3, PS), the calcium oscillation score was 78.1 % of control.
Consider “AGATATTCATTCCCTCA (sugars l3 d12 l2, PS)”, for which the calcium oscillation score was 53 % of control.
Take “AGATCATCCATTTTCTT (sugars l2 d11 l4, PS)”: the calcium oscillation score was 55.3 % of control.
As for AGCAATAGCAAACAG (sugars l3 d9 l3, PS), the calcium oscillation score was 52.8 % of control.
Take AGCAATAGCAAACAGG (sugars l3 d10 l3, PS): the calcium oscillation score was 48.8 % of control.
Next, AGCAGAGGAACGTGTG (sugars l3 d10 l3, PS): 11.1 % of control; “AGCAGGTTAAGTGATTAACC (sugars l3 d14 l3, PS)”: 16 % of control.
Take AGCATCAGAGGTTTCA (sugars l3 d10 l3, PS): the calcium oscillation score was 0 % of control.
Next, “AGCCACACTTGGAGGTCACC (sugars l3 d14 l3, PS)”: 0 % of control; AGCCACTGTTGCCACA (sugars l2 d12 l2, PS): 39.3 % of control; “AGCCCATTTACAATTCA (sugars l2 d11 l4, PS)”: 76.7 % of control.
With AGCCCTAAAGTCCCAG (sugars l3 d10 l3, PS) the figure was 38.1 % of control.
In the case of “AGCCTCTAGCCACATGGACC (sugars l3 d14 l3, PS)”, the calcium oscillation score is 16.1 % of control.
Next, AGCGTGATCTTCCATC (sugars l3 d10 l3, PS): 101 % of control.
As for AGCTACTCACAACCCA (sugars l2 d11 l3, PS), the calcium oscillation score is 65.6 % of control.
For the sequence “AGCTGGGTGGTGTCTTTGGA (sugars l3 d14 l3, PS)”, the calcium oscillation score was 0 % of control.
With “AGCTTCCACATTTTACA (sugars l3 d12 l2, PS)”, the calcium oscillation score is 63.8 % of control.
As to “AGCTTCGTCTTCCAGGCTGG (sugars l3 d14 l3, PS)”, the calcium oscillation score was 13.3 % of control.
On to “AGCTTGTGGGTTTCAATCTT (sugars l3 d14 l3, PS)”, for which the calcium oscillation score is 0 % of control.
Next, AGCTTTGAGTTGAGGG (sugars l3 d10 l3, PS): 0 % of control; AGGAAATCCACAGGGA (sugars l3 d10 l3, PS): 0 % of control; “AGGCAAAGGTTTATCTTCCA (sugars l3 d14 l3, PS)”: 33 % of control.
As for AGGCACAAGTCCTTA (sugars l3 d9 l3, PS), the calcium oscillation score was 107 % of control.
Regarding AGGCATGATTGTGGGC (sugars l3 d10 l3, PS), the calcium oscillation score is 0 % of control.
Consider AGGCGCGAGCAGCG (sugars l3 d8 l3, PS), for which the calcium oscillation score is 100 % of control.
With AGGGACCCAATCTTCG (sugars l3 d10 l3, PS) the figure was 73.3 % of control; with “AGGGACGTGGGTGATATTGT (sugars l3 d14 l3, PS)”, 1.3 % of control.
For the sequence “AGGTATCCAGCCATATTTCA (sugars l3 d14 l3, PS)”, the calcium oscillation score was 20.2 % of control.
Take AGGTCAACTGGTTT (sugars l3 d8 l3, PS): the calcium oscillation score is 117 % of control.
AGGTCAACTGGTTTGT (sugars l3 d10 l3, PS): the calcium oscillation score is 0 % of control.
With “AGGTCAACTGGTTTGTAGAC (sugars l3 d14 l3, PS)” the figure was 0 % of control; with AGGTCACCTTGCTCAG (sugars l3 d10 l3, PS), 52.8 % of control; with AGGTCTGGCATGGGC (sugars l3 d9 l3, PS), 47.6 % of control.
Take “AGGTTAAGTGATTAACCAAT (sugars l3 d14 l3, PS)”: the calcium oscillation score was 115 % of control.
With AGTCAAGCATCACGTT (sugars l3 d10 l3, PS) the figure was 42.2 % of control; with AGTCACTCTGGTGA (sugars l3 d8 l3, PS), 97.1 % of control; with AGTCCCGAGCCAAAG (sugars l3 d9 l3, PS), 36.6 % of control.
Regarding AGTCCCGTCTTTGC (sugars l3 d8 l3, PS), the calcium oscillation score is 2.61 % of control.
AGTCCTAATCCTGTGC (sugars l3 d10 l3, PS): the calcium oscillation score is 25.3 % of control.
Consider AGTCTACCATGTCGAT (sugars l3 d10 l3, PS), for which the calcium oscillation score was 69.1 % of control.
Take “AGTCTACCATGTCGATGCTG (sugars l3 d14 l3, PS)”: the calcium oscillation score is 71.2 % of control.
Turning to AGTCTTTATTAACACTC (sugars l4 d9 l4, PS), the calcium oscillation score was 60.8 % of control.
Consider AGTGACAGAAGAGACG (sugars l3 d10 l3, PS), for which the calcium oscillation score is 9.04 % of control.
Turning to “AGTGATTAACCAATTAACCG (sugars l3 d14 l3, PS)”, the calcium oscillation score is 5.18 % of control.
As for AGTGGAGCCGATCTTG (sugars l3 d10 l3, PS), the calcium oscillation score is 0 % of control.
As for “AGTTCCCACAATTCCTA (sugars l2 d13 l2, PS)”, the calcium oscillation score was 38.7 % of control.
With “AGTTCCCACAATTCCTAC (sugars l2 d13 l3, PS)” the figure was 50.4 % of control; with AGTTTGTGCAAGGTC (sugars l3 d9 l3, PS), 0 % of control; with ATAAATTTGAACCCCT (sugars l3 d9 l4, PS), 49.7 % of control.
Turning to “ATACAATAAATACCATATTC (sugars l3 d14 l3, PS)”, the calcium oscillation score was 81 % of control.
Take “ATACAGTTGGCCCTACCATA (sugars l3 d14 l3, PS)”: the calcium oscillation score was 30.9 % of control.
Regarding “ATACTCAAATTCTTCCT (sugars l3 d10 l4, PS)”, the calcium oscillation score was 84.8 % of control.
For “ATACTCAAATTCTTCCTT (sugars l4 d11 l3, PS)”, the calcium oscillation score is 70.9 % of control.
Next, “ATACTCAAATTCTTCCTTT (sugars l3 d12 l4, PS)”: 74 % of control; ATAGATTTTACTACTC (sugars l4 d8 l4, PS): 73.3 % of control; ATAGCAAACAGGATAC (sugars l3 d10 l3, PS): 27.6 % of control.
Turning to ATAGTCACTCTGGTG (sugars l3 d9 l3, PS), the calcium oscillation score is 27.8 % of control.
With ATAGTCACTCTGGTGA (sugars l3 d10 l3, PS) the figure was 85.7 % of control; with ATATCATATCCTAAGC (sugars l4 d9 l3, PS), 50.9 % of control.
Regarding “ATATTCCACACATAAACAA (sugars l4 d11 l4, PS)”, the calcium oscillation score was 62.8 % of control.
For ATATTGAACTCACCCA (sugars l4 d9 l3, PS), the calcium oscillation score is 67.3 % of control.
Take “ATATTGAACTCACCCAC (sugars l2 d11 l4, PS)”: the calcium oscillation score is 54.3 % of control.
With “ATATTGTCCAGGGACCCAAT (sugars l3 d14 l3, PS)” the figure was 19.9 % of control; with “ATATTTAGTTTTCCCAC (sugars l2 d11 l4, PS)”, 42.4 % of control; with “ATCAATTCTCATTTCAACCT (sugars l3 d15 l2, PS)”, 70.7 % of control.
With “ATCAATTTGGAAAGATGAAA (sugars l3 d14 l3, PS)”, the calcium oscillation score was 10.4 % of control.
For the sequence “ATCACAAACCCTGCTTGGCC (sugars l3 d14 l3, PS)”, the calcium oscillation score was 55.2 % of control.
For the sequence “ATCACTGATTTTGAAGTCCC (sugars l5 d10 l5, PS)”, the calcium oscillation score was ≥ 200 % of control.
